From patent US12286425B2, “Herbicidally active bicyclic benzamides” (Bayer Aktiengesellschaft, priority 2018, dated 2025)

How the values were obtained:
Type in all cases: in vivo
SETVI = experiment: Pre-emergence herbicidal action (PE), greenhouse pot test, SETVI; details: for Herbicidal activity SETVI: pre-emergence (PE)
From the text: (§1) 1. Pre-emergence herbicidal action and crop plant compatibility (pre-emergence, PE) Seeds of monocotyledonous and dicotyledonous weed plants and crop plants are placed in plastic or organic planting pots and covered with soil. The compounds of the invention, formulated in the form of wettable powders (WP) or as emulsion concentrates (EC), are then applied onto the surface of the covering soil as aqueous suspension or emulsion with addition of 0.5% additive at a water application rate of […] (converted). After the treatment, the pots are placed in a greenhouse and kept under good growth conditions for the trial plants. After about 3 weeks, the effect of the preparations is scored visually in comparison with untreated controls as percentages. The tables below show the herbicidal activity of numerous compounds according to the invention against important harmful plants. For example, 100% activity=the plants have died, 0% activity=like control plants.

[1] = system: monocotyledonous and dicotyledonous weed plants and crop plants; experiment: Pre-emergence herbicidal action and crop plant compatibility (PE), other species and comparison with A-117; details: for Herbicidal activity ABUTH: Abutilon theophrasti; for Herbicidal activity AMARE: Amaranthus retroflexus; for Herbicidal activity MATIN: Matricaria inodora; for Herbicidal activity STEME: Stellaria media; for Herbicidal activity VIOTR: Viola tricolor; for Herbicidal activity CYPES: Cyperus esculentus; for Herbicidal activity ECHCG: Echinochloa crus-galli; for Herbicidal activity POLCO: Polygonum convolvulus
From the text: as §1
(§2) In a comparative experiment, by way of example, the herbicidal activity of compound No. 2-13 according to the invention was compared to that of compound No. A-117 known from WO 2013/076315 A2.

[2] = system: monocotyledonous and dicotyledonous weeds and crop plants; experiment: Post-emergence herbicidal action and crop plant compatibility (PO), including comparison with A-117; details: for Herbicidal activity ABUTH / Herbicidal activity AMARE / Herbicidal activity ECHCG / Herbicidal activity STEME / Herbicidal activity VIOTR / Herbicidal activity VERPE / Herbicidal activity ALOMY / herbicidal activity AVEFA / Herbicidal activity PHBPU / Herbicidal activity LOLMU / Herbicidal activity MATIN / Herbicidal activity POLCO / Herbicidal activity SETVI / Herbicidal activity CYPES: post-emergence (PO); for Herbicidal activity ABUTH: Abutilon theophrasti; for Herbicidal activity AMARE: Amaranthus retroflexus; for Herbicidal activity ECHCG: Echinochloa crus-galli; for Herbicidal activity STEME: Stellaria media; for Herbicidal activity VIOTR: Viola tricolor; for Herbicidal activity VERPE: Veronica persica; for Herbicidal activity ALOMY: Alopecurus myosuroides; for herbicidal activity AVEFA: Avena fatua; for Herbicidal activity PHBPU: Ipomoea purpurea; for Herbicidal activity LOLMU: Lolium multiflorum; for Herbicidal activity MATIN: Matricaria inodora; for Herbicidal activity POLCO: Polygonum convolvulus; for Herbicidal activity SETVI: Setaria viridis; for Herbicidal activity CYPES: Cyperus esculentus
Procedure: 2. Post-emergence herbicidal action and crop plant compatibility (post-emergence, PO) Seeds of monocotyledonous and dicotyledonous weeds and crop plants are placed in sandy loam in plastic or organic planting pots, covered with soil and cultivated in a greenhouse under controlled growth conditions. 2 to 3 weeks after sowing, the test plants are treated at the one-leaf stage. The compounds of the invention, formulated in the form of wettable powders (WP) or as emulsion concentrates (EC), are then sprayed onto the green parts of the plants as aqueous suspension or emulsion with addition of 0.5% additive at a water application rate of […] (converted). After the test plants had been kept in the greenhouse under optimum growth conditions for about 3 weeks, the activity of the preparations is rated visually in comparison to untreated controls. The tables below show the herbicidal activity of numerous compounds according to the invention against important harmful plants. For example, 100% activity=the plants have died, 0% activity=like control plants.
as §2

AVEFA = experiment: Pre-emergence herbicidal action (PE), greenhouse pot test, AVEFA; details: for herbicidal activity AVEFA: pre-emergence (PE), application rate 320, scored visually after about 3 weeks vs untreated controls, 100% = plants have died, 0% = like control plants
From the text: as §1

[3] = pre-emergence (PE), application rate 80, scored visually after about 3 weeks
[4] = application rate 20, rated visually after about 3 weeks
[5] = application rate 80, rated visually after about 3 weeks
[6] = Setaria viridis, application rate 320, scored visually after about 3 weeks
[7] = pre-emergence (PE), application rate 320, scored visually after about 3 weeks

| SMILES | Herbicidal activity ECHCG [2, 5] [%] | Herbicidal activity VERPE [2, 5] [%] | Herbicidal activity VIOTR [2, 5] [%] | Herbicidal activity SETVI (SETVI; [6]) [%] | herbicidal activity AVEFA (AVEFA) [%] | Herbicidal activity ABUTH [1, 7] [%] | Herbicidal activity AMARE [1, 7] [%] | Herbicidal activity CYPES [1, 7] [%] | Herbicidal activity ECHCG [1, 7] [%] | Herbicidal activity MATIN [1, 7] [%] | Herbicidal activity POLCO [1, 7] [%] | Herbicidal activity STEME [1, 7] [%] | Herbicidal activity VIOTR [1, 7] [%] | Herbicidal activity ABUTH [2, 5] [%] | Herbicidal activity AMARE [2, 5] [%] | herbicidal activity AVEFA [2, 5] [%] | Herbicidal activity PHBPU [2, 5] [%] | Herbicidal activity POLCO [2, 5] [%] | Herbicidal activity SETVI [2, 5] [%] | Herbicidal activity STEME [2, 5] [%] | other results |
| --- | --- | --- | --- | --- | --- | --- | --- | --- | --- | --- | --- | --- | --- | --- | --- | --- | --- | --- | --- | --- | --- |
| Cn1nnnc1NC(=O)c1ccc(C(F)(F)F)c2c1SCCS2 [Example 2-5, 5-(trifluoromethyl)-2,3-dihydro-1,4-benzodithiine-N-(1-methyltetrazol-5-yl)-8-carboxamide] |  |  |  |  |  |  |  |  |  |  |  |  |  |  |  |  |  |  |  |  | Herbicidal activity SETVI (SETVI; application rate 80, scored visually after about 3 weeks vs untreated controls, 100% = plants have died, 0% = like control plants): 90%; Herbicidal activity ABUTH [1, 3]: 100%; Herbicidal activity AMARE [1, 3]: 100%; Herbicidal activity MATIN [1, 3]: 100%; Herbicidal activity STEME [1, 3]: 90%; Herbicidal activity VERPE ([1]; pre-emergence (PE), Veronica persica, application rate 80, scored visually after about 3 weeks): 90%; Herbicidal activity VIOTR [1, 3]: 100%; Herbicidal activity ABUTH [2, 4]: 90%; Herbicidal activity AMARE [2, 4]: 100%; Herbicidal activity ECHCG [2, 4]: 90%; Herbicidal activity STEME [2, 4]: 80%; Herbicidal activity VIOTR [2, 4]: 80% |
| Cn1nnnc1NC(=O)c1ccc(C(F)(F)F)c2c1S(=O)(=O)CCS2(=O)=O [Example 2-11] | 80 | 80 | 90 |  |  |  |  |  |  |  |  |  |  |  |  |  |  |  |  |  | Herbicidal activity ABUTH [1, 3]: 100%; Herbicidal activity AMARE [1, 3]: 80%; Herbicidal activity MATIN [1, 3]: 80% |
| Cn1nnnc1NC(=O)c1ccc(C(F)(F)F)c2c1OCCS2 [Example 2-13, 5-(trifluoromethyl)-2,3-dihydro-1,4-benzoxathiine-N-(1-methyltetrazol-5-yl)-8-carboxamide] | 90 | 100 | 100 | 100 | 80 | 100 | 100 | 90 | 100 | 100 | 80 | 90 | 100 | 100 | 90 | 90 | 90 | 80 | 90 | 90 | Herbicidal action against SETVI (SETVI; pre-emergence (PE) comparative experiment with A-117, Setaria viridis, dosage 320 g/ha): 100%; Herbicidal action against AVEFA (AVEFA; pre-emergence (PE) comparative experiment with A-117, Avena fatua, dosage 320 g/ha): 80%; Herbicidal action against ABUTH ([1]; pre-emergence (PE) comparative experiment with A-117, Abutilon theophrasti, dosage 320 g/ha): 100%; Herbicidal action against ALOMY ([1]; pre-emergence (PE) comparative experiment with A-117, Alopecurus myosuroides, dosage 320 g/ha): 90%; Herbicidal action against MATIN ([1]; pre-emergence (PE) comparative experiment with A-117, Matricaria inodora, dosage 320 g/ha): 100%; herbicidal activity compared to compound No. A-117 ([1]; pre-emergence comparative experiment, numerous harmful plants): superiority of the compound according to the invention was demonstrated clearly; Herbicidal action against ABUTH ([2]; post-emergence (PO) comparative experiment with A-117, Abutilon theophrasti, dosage 80 g/ha): 100%; Herbicidal action against ALOMY ([2]; post-emergence (PO) comparative experiment with A-117, Alopecurus myosuroides, dosage 80 g/ha): 90%; Herbicidal action against AVEFA ([2]; post-emergence (PO) comparative experiment with A-117, Avena fatua, dosage 80 g/ha): 90%; Herbicidal action against LOLMU ([2]; post-emergence (PO) comparative experiment with A-117, Lolium multiflorum, dosage 80 g/ha): 80%; Herbicidal action against POLCO ([2]; post-emergence (PO) comparative experiment with A-117, Polygonum convolvulus, dosage 80 g/ha): 80%; Herbicidal activity ALOMY [2, 5]: 90%; Herbicidal activity LOLMU [2, 5]: 80%; Herbicidal activity MATIN [2, 5]: 90%; herbicidal activity compared to compound No. A-117 ([2]; post-emergence comparative experiment, numerous harmful plants): superiority of the compound according to the invention was demonstrated clearly |
| Cn1nnnc1NC(=O)c1ccc(C(F)(F)F)c2c1OCC[S+]2[O-] (stereo not drawn) [Example 2-17, 5-(trifluoromethyl)-2,3-dihydro-1,4-benzoxathiine-N-(1-methyltetrazol-5-yl)-8-carboxamide 4-oxide] | 90 | 100 | 100 | 100 | 80 | 100 | 100 | 100 | 100 | 90 |  | 100 | 100 | 100 | 90 | 100 | 100 | 90 | 90 | 100 | Herbicidal activity ALOMY [2, 5]: 90%; Herbicidal activity CYPES [2, 5]: 100%; Herbicidal activity LOLMU [2, 5]: 90%; Herbicidal activity MATIN [2, 5]: 90% |
| Cn1nnnc1NC(=O)c1ccc(C(F)(F)F)c2c1OCCS2(=O)=O [Example 2-20, 5-(trifluoromethyl)-2,3-dihydro-1,4-benzoxathiine-N-(1-methyltetrazol-5-yl)-8-carboxamide 4,4-dioxide] | 90 | 100 | 100 | 100 | 100 | 100 | 100 | 100 | 100 | 100 | 100 | 90 | 100 | 100 | 100 | 80 | 90 | 100 | 90 | 90 | Herbicidal activity ALOMY [2, 5]: 80%; Herbicidal activity CYPES [2, 5]: 80%; Herbicidal activity LOLMU [2, 5]: 80%; Herbicidal activity MATIN [2, 5]: 100% |
| Cn1nnnc1NC(=O)c1ccc(C(F)(F)F)c2c1OCC(Cl)S2 (stereo not drawn) [Example 2-41] |  |  |  |  |  |  |  |  |  |  |  |  |  |  | 90 |  |  |  |  |  |  |
| CCn1nnnc1NC(=O)c1ccc(C(F)(F)F)c2c1OCCS2 [Example 3-13, 5-(trifluoromethyl)-2,3-dihydro-1,4-benzoxathiine-N-(1-ethyltetrazol-5-yl)-8-carboxamide] | 100 |  | 100 | 100 | 80 | 100 | 100 | 100 | 100 | 90 | 90 | 100 | 100 | 100 | 90 | 90 | 90 | 100 | 90 | 100 |  |
